Tests used:
asthma patients = tested on: asthma patients; design: method as in PMID 31371445, PMID 10197050; details: clinical trial for asthma, abandoned; cited from earlier work
[1] = target: T1, Tryptase from a human lung (Homo sapiens, UniProt P20231); experiment: Measurement of inhibitory activity against tryptase (chromogenic substrate, absorbance at 415 nm); assay type: biochemical; details: for IC50: inhibitor alone, 30 min preincubation, mean ± SE (n = 3)
T1 construct: Tryptase from a human lung was purchased from Sigma-Aldrich; purchased Sigma-Aldrich; host or cells: human lung tissue
T1 sequence (P20231 31-275): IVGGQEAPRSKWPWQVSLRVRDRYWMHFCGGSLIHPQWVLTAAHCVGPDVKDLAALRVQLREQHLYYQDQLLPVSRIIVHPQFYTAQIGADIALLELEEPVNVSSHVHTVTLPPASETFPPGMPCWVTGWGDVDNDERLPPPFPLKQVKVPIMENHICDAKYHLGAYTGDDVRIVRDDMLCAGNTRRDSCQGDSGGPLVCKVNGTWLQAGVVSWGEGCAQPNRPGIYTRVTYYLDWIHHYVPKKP
Procedure: (§1) Tryptase from a human lung was purchased from Sigma-Aldrich (St. Louis, MO, USA). The activity of tryptase was measured in 100 mM Tris-HCl buffer, pH 8.0, 100 mM glycerol, 0.02 mg/mL heparin sodium salt and 167 µM N-(p-Tosyl)-Gly-Pro-Lys 4-nitroanilide acetate salt (Sigma-Aldrich) as a substrate. Prior to addition of the substrate, the inhibitor was preincubated with the enzyme for 30 min at room temperature to allow the establishment of the enzyme–inhibitor complex. The substrate was then added, and after incubation for 30 min at 37 °C, the enzyme activity was measured from the increase in absorbance at 415 nm. The assays were performed using a 384-well microplate (CELLSTAR 384-well 781182, Greiner Bio-One, Kremsmünster, Austria) and absorbance was measured using a Powerscan 4 plate reader (DS pharma biomedical, Osaka, Japan). The inhibition ratio was calculated using the following equation: inhibition ratio %=1−AE+S+I−AS−AI+Ablank/AE+S−AS×100
A(x): absorbance intensity (415 nm); E: enzyme; S: substrate; I: inhibitor; blank: buffer.
(§2) The inhibitory activity against tryptase and the trypsin of leupeptin and PB8GG’ were measured at 0.1–100 µM, along with that of ellagitannins (carpinin B or carpinin E) isolated by our group at 20–50 µM. The inhibitory activity of a combination of various concentrations of PB8GG’ and 50 µM ellagitannins was also assayed.
(§3) Drawing curves of the inhibition and calculation of IC50 were performed by GraphPad Prism (Version 9.5.1).

[2] = target: T2, Trypsin from a hog pancreas (Sus scrofa, UniProt P00761); experiment: Measurement of inhibitory activity against trypsin (Bz-L-Arg-pNA substrate, absorbance at 415 nm); assay type: biochemical
T2 construct: Trypsin from a hog pancreas was purchased from Nacalai Tesque; purchased Nacalai Tesque; host or cells: hog pancreas
T2 sequence (P00761 9-231): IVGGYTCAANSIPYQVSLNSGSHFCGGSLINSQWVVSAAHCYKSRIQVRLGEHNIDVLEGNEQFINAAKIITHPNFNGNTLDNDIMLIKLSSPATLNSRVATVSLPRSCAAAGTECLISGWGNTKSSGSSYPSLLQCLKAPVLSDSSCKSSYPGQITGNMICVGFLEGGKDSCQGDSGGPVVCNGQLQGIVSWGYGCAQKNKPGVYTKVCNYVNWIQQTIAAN
Procedure: Trypsin from a hog pancreas was purchased from Nacalai Tesque, Kyoto, Japan. The activity of trypsin was measured in 200 mM Tris-HCl buffer, pH 7.8, 20 mM CaCl2 and 385 µM Benzoyl-L-arginine p-nitroanilide monohydrochloride (Bz-L-Arg-pNA·HCl) (Peptide Institute, Osaka, Japan) as a substrate. Prior to addition of the substrate, the inhibitor was preincubated with the enzyme for 10 min at room temperature to allow the establishment of the enzyme–inhibitor complex. The substrate was then added, and after incubation for 60 min at 37 °C, the enzyme activity was measured from the increase in absorbance at 415 nm. The assays were performed using a 384-well microplate and absorbance was measured using a Powerscan 4 plate reader.
as §2, §3

[3] = tested on: Tryptase from a human lung; experiment: Kinetic analysis of tryptase inhibition (Lineweaver-Burk plot, Morrison's formula); assay type: biochemical
Procedure: as §1
Ki^app was calculated using the Morrison’s formula with GraphPad Prism. The mean value of Km from the kinetic analysis (described in next Section 4.5) was substituted as a constant in the formula.
For kinetic studies of tryptase, inhibition assays were carried out as described in the preceding paragraph. […] The kinetic parameters were calculated by curve fitting using GraphPad Prism.

Question: For `NC(=O)[C@@H]1CCCN1C(=O)[C@H](CCCN=C(N)N)NC(=O)c1ccc2ccccc2c1O` [APC-366], which “adverse effect in treated patients” value (asthma patients) is on record?
Answer: caused bronchospasms

Question: Which IC50 [1] does the source give for `CC(=O)N[C@@H](CC(C)C)C(=O)N[C@@H](CC(C)C)C(=O)N[C@H](C=O)CCCNC(=N)N` [leupeptin, reference compound] here?
Answer: 14.9 ± 1.25 µM

Question: What about the IC50 ([2]; 10 min preincubation, mean ± SE (n = 3)) of the same compound?
Answer: 8.4 ± 0.31 µM

Question: What does the source list for `O=C(O[C@@H]1Cc2c(cc(O)c(C3c4c(O)cc(O)cc4O[C@H](c4ccc(O)c(O)c4)[C@H]3OC(=O)c3cc(O)c(O)c(O)c3)c2O)O[C@@H]1c1ccc(O)c(O)c1)c1cc(O)c(O)c(O)c1` (stereo partly drawn) [PB8GG’, procyanidin B8 3,3′-di-O-gallate]?
Answer: inhibition of tryptase activity ([1]; at 5 μM): clearly inhibited; inhibition of tryptase activity ([1]; at the dose of 1–3 μM): very weakly inhibited; IC50 [1]: 7.78 ± 0.17 µM; inhibitory activity against trypsin ([2]; tested at 0.1–100 µM): little inhibitory activity; mode of inhibition of tryptase ([3]; Lineweaver–Burk plot): mixed-type non-competitive; Ki ([3]; Morrison's formula, GraphPad Prism, read-out: inhibition constant Ki app): 5.02 ± 0.99 µM
